Source: US20140072654A1, “CANCER WITH METABOLIC THERAPY AND HYPERBARIC OXYGEN” (priority 2011, published 2014)
“And” between values parts separate entries of the source, which are not always exact repeats. Equal entries are not always repeated. “Also recorded” adds a separate entry of the source.

Tests used:
VM-M3 metastatic cancer = assay: Survival time in VM-M3 mouse model of metastatic cancer; assay type: in vivo; conditions: for increase in mean survival time: Example 5, compared to controls; for % increase in survival time: Example 5, vs control (SD)
[1] = test system: rats exposed to hyperbaric oxygen (5 ATA O2); assay: CNS oxygen toxicity: latency to seizure (EEG) in rats in hyperbaric oxygen; assay type: in vivo, rat; conditions: for effect on latency to seizure / CNS-OT (words) / increase in latency to seizure (LS) compared to control: rats; for effect on latency to seizure / CNS-OT (words): 5 ATA O2, ~3 ml (~10 g/kg) gavage 30 min before HBO2; for increase in latency to seizure (LS) compared to control: 5 ATA O2, ~10 g/kg intragastric 30 min before dive, control water
Source text: Hyperbaric Chamber HBO2 system consisted of two main elements: 1) a plexiglass chamber (˜3 liter capacity, Diamond Box, Buxco, Electronics Inc., model PLY3114), that housed the rat during the experiment, and 2) a hyperbaric chamber (Reimers System Inc.—7.8 ATA MWP), that contained the plexiglass chamber and functioned as the pressure vessel. Both chambers were connected to an air compressor (oil-less rotary scroll compressor—model DK6086, Powerex).
During each experiment (hyperbaric hyperoxia), both the main chamber and the animal chamber were filled with air (dive profile). Rats were placed into the plexiglass chamber and allowed ten minutes to acclimate, at which time the plexiglass chamber was flushed with 100% 02. The animal was then allowed 15 minutes to acclimate before both chambers were compressed to 5 ATA (58.8 PSIG) at a rate of 0.7 ATA/min. The outer chamber was pressurized using air (capacity ˜205 liters) to minimize the risk of an electrical-induced fire. Each experiment was visually monitored via a live camera. LS was calculated from the moment at which the internal and the external chambers reached 5 ATA until the onset of convulsions, identified as high-amplitude, high frequency spikes lasting 10 to 30 sec, followed by polyspikes and wave formation concurrent with tonic-clonic motions of forelimbs and head. After the onset of seizures, the plexiglass chamber was flushed with air to quickly terminate seizure, and both chambers decompressed to sea level. Decompression rate was 1 ATA/min. Rats were then allowed a 15 min recovery period in air at 1 ATA before being removed from the chamber.
The radiotelemetry system consisted of an implantable 4ET radio-transmitter able to amplify and broadcast signals via a receiver (DSI PhysioTel, model RPC-2) connected to an acquisition interface unit (ACQ 7700 Ponemah) via electrical penetrations in the wall of the hyperbaric chamber. The acquisition interface unit was connected to a computer for real time data collection and storage. The same acquisition unit also recorded chamber pressure and temperature, which were measured, respectively, by […] directly connected to the acquisition system via BNC (Bayonet Neill-Concelman) cables.
Anticonvulsant effect of supplemental ketones was tested in rats exposed to hyperbaric oxygen (5 ATA O2). The effects of ketone esters (KEs) in preventing CNS-OT in rats were assessed before, during and after HBO2 exposure by measuring various parameters.
Adult male Sprague-Dawley rats (n=60) rats (300-450 grams; 3 to 6 month old) were obtained from Harlan, anesthetized in 3-5% isoflurane (in 02) and implanted with a 4ET radio-transmitter (Data Sciences International, DSI) using sterile surgical technique. The rat chamber was ventilated with pure O2 while the hyperbaric chamber, containing the radio-receiver (DSI), was pressurized in parallel with air to 5 atmospheres absolute (ATA). One pair of leads (positive and negative poles) was implanted in the costal diaphragm at the junction with the abdominal wall for diaphragmatic electromyogram (dEMG) signals, one pair of electrodes was inserted in the pectoral muscle to acquire electrocardiogram (ECG) data, and two pairs of wires were embedded in the skull between Bregma and Lambda, with one lead on either side of midline for each pair (EEG recordings). The EMG wires were not inserted into crural diaphragmatic muscle because of the high risk of pneumothorax due to the thinness of the muscle (419 to 630 μm). 4ET radio-transmitters also monitored core body temperature and physical activity. Rats were weighed immediately before surgery and subsequently once every 7 days, just prior to the weekly exposures to HBO2. After surgery, every animal recovered for ≧1 week. The rats were food (not water) deprived for 18 hours prior to the start of the experiment.
In each case animals were gavaged about 30 minutes prior to diving. […]

VM-M3/Fluc tumors = assay: Tumor bioluminescence in VM-M3/Fluc mice; assay type: in vivo, mouse; conditions: for tumor growth / bioluminescence: VM-M3 mice vs controls; for whole body tumor bioluminescence (ROI), representative animal: day 21 after tumor cell inoculation
[2] = rats; for decrease of blood pH compared to control after about 30 minutes / decrease of blood pH compared to control after about one hour: control pH ~7.5, mean
[3] = Acute ketosis with supplementation in healthy VM/Dk mice (blood glucose, blood βHB, urine AcAc after feeding); assay type: in vivo, mouse; conditions: for time after feeding to significant βHB elevation: after 8 hour fast; for ketone bodies elevated, βHB and AcAc: blood βHB and urine AcAc; for time for which blood glucose was significantly lowered: standard chow with ketone supplementation after 8 hour fast
Method: FIG. 34(A)-(C) are graphs showing effect of ketone supplementation on blood glucose, blood βHB, urine AcAc, and body weight in mice. (A-C) blood glucose; (B) blood levels of ketones; and (C) urine AcAc of healthy VM/Dk mice 0-12 hours after feeding following 8 hour fast. […] Error bars represent ±SEM.

[4] = Blood ketones and glucose after oral gavage in rats; assay type: in vivo, rat; conditions: for blood AcAc level / blood acetone level / effect on blood glucose / blood BHB level (words): ~10 g/kg gavage; for blood acetone level: 60 minutes; for effect on blood glucose: over 4 hrs, relative to water; for blood BHB level (words): vs control water; for duration of elevation of blood ketones: single oral/intragastric administration
Method: Whole blood samples (10 μl) were acquired for analysis of glucose and BHB utilizing a commercially available glucose/ketone monitoring system (Nova Max® Plus) at time 0, 30, 60, 120, 180 and 240 min. In addition, heparinized blood samples (200 μl) were collected into Eppendorf tubes at time 0, 30, 60, 120, 180 and 240 min. Samples were processed for the detection and quantification of BHB, AcAc, and acetone. Briefly, samples were chilled on ice for 30 s, centrifuged in a micro-centrifuge (13,000 G) for 3-5 min and plasma (>100 μl), treated with reducing reagent of cold 0.2M sodium borodeuteride (NaBD4; Sigma, 205591, CAS 15681-89-7) dissolved in 0.1M NaOH (8.4 mg NaBD4 in 1 ml of 0.1M NaOH) and then immediately frozen on dry ice before storing at −80° C. Acetone was analyzed at the 60 minute time point, which was the predicted peak of blood AcAc levels (Desrochers et al. 1995). 300 μl of whole blood were collected in addition to the above collections, stabilized with cold 0.2M NaBD4, and then immediately frozen on dry ice. Samples were stored at −80° C. until analyzed for ketones. Internal standards of [^2H6]BHB or [^2H8]isopropanol were added to the treated plasma or blood samples (50 μl or 15 μl) and the BHB, AcAc (as M+1 of BHB) or acetone (as 2-propanol) metabolites were analyzed by gas chromatography-mass spectrometry (GC-MS) using an Agilent 5973 mass spectrometer, linked to a 6890 gas chromatograph equipped with an autosampler. Briefly, GC-MS conditions were either EI or CI mode (electron or chemical ionization mode); the samples were detected by selected ion monitoring as the BHB- and AcAc-trimethylsilyl derivatives (EI) or the derivative of acetone-pentafluorobenzoyl (CI).
KE and BD. […] Blood was collected and processed as described in the previous example.
Ketone measurements were taken at 30, 60, 120, 180 and 240 minutes. Blood plasma was treated with sodium borodeuteride (NaB2H4) to stabilize ketone concentration and then assayed by GC-MS. The rapid rise relating to blood ketones from BD-AcAc2 is due primarily from rapid desterfication in blood and tissues.

[5] = Blood glucose, blood βHB and body weight of VM-M3 survival study mice
[6] = single oral administration ~10 g/kg

| Molecule | increase in mean survival time (VM-M3 metastatic cancer) | % increase in survival time (VM-M3 metastatic cancer) | effect on latency to seizure / CNS-OT (words) [1] | tumor growth / bioluminescence (VM-M3/Fluc tumors) | whole body tumor bioluminescence (ROI), representative animal (VM-M3/Fluc tumors) | blood pH change, mild nonpathological acidosis (FIG. 25) [2] | decrease of blood pH compared to control after about 30 minutes [2] | decrease of blood pH compared to control after about one hour [2] | time after feeding to significant βHB elevation [3] [h] | ketone bodies elevated, βHB and AcAc [3] | time for which blood glucose was significantly lowered [3] [h] | blood BHB [4, 6] [mM] | blood AcAc level [4] | blood acetone level [4] | effect on blood glucose [4] | blood BHB level (words) [4] | increase in latency to seizure (LS) compared to control [1] | further results |
| --- | --- | --- | --- | --- | --- | --- | --- | --- | --- | --- | --- | --- | --- | --- | --- | --- | --- | --- |
| C[C@H](O)CCO [BD, R,S-1,3-butanediol, reference compound] | approximately 16 days | 51% | did not delay CNS-OT; also recorded: did not increase LS | profound effect | 1.739×10^6 | from 7.45 to 7.35 | 0.05 | 0.1 | 1 | only elevated βHB | 8 | > 5 | only modest elevation in AcAc relative to KE; also recorded: low or undetectable | low or undetectable | no significant effect on blood glucose levels | significant increase in BHB | – | effect on latency to seizure / CNS-OT (words) ([1]; listed as 1,3-BD): lack of efficacy; effect on latency to seizure / CNS-OT (words) ([1]; listed as 1,3-butanediol): no effect on seizure latency; blood BHB level (words) ([4]; listed as 1,3-butanediol): elevated blood levels of B-hydroxybutyrate |
| CC(=O)CC(=O)OCCC(C)O (stereo not drawn) [BD-AcAc, R,S-1,3-butanediol acetoacetate monoester] | – | – | significantly increased the latency time to seizure | – | – | – | – | – | – | – | – | – | – | – | – | – | 285% | latency time to seizure, individual rat (EEG) ([1]; 5 ATA O2 (60 PSI), same rat 8 minutes without ketone ester): 110 min; effect on latency to seizure / CNS-OT (words) ([1]; listed as 1,3-BD AcAc monoester): delays CNS-OT |
| (R)-1,3-butanediol ester [BHB ester, reference compound] | – | – | – | – | – | – | – | – | – | – | – | – | – | – | – | elevated blood levels of B-hydroxybutyrate | – | effect on latency to seizure / CNS-OT (words) ([1]; listed as 1,3-BD BHB ester): lack of efficacy; effect on latency to seizure / CNS-OT (words) ([1]; listed as B-hydroxybutyrate ester): no effect on seizure latency |
| CC(=O)CC(=O)OCCC(C)OC(=O)CC(C)=O (stereo not drawn) [KE, R,S-1,3-butanediol acetoacetate diester] | approximately 22 days | 69% and 69.2* % | – | drastically reduced tumor progression | 1.536×10^6 | from 7.45 to 7.35 | 0.05 | 0.1 | 4 | elevated both βHB and AcAc | 4 | > 3 | increased significantly more; also recorded: significant increase in BHB and AcAc at 30 minutes | significantly higher at 60 minutes | no significant effect on blood glucose levels | significant increase in BHB and AcAc at 30 minutes | 574±115% and 574±116% | Mean survival (VM-M3 metastatic cancer; Example 5, supplemental ketones, control (SD) 31.2): 52.8 days; effect on latency to seizure / CNS-OT (words) ([1]; listed as 1,3-BD AcAc diester): delays CNS-OT; effect on latency to seizure / CNS-OT (words) ([1]; listed as BD-AcAc2): most effective KE against CNS-OT; also recorded: significantly increased the latency time to seizure; increase in latency to seizure (LS) compared to control ([1]; listed as BD-AcAc2): > 570%; increase in latency to seizure (LS) compared to control ([1]; listed as dKE): 570%; blood glucose vs controls [5]: lower blood glucose; blood ketones (βHB) vs controls [5]: elevated blood βHB; increase in blood pO2 levels ([2]; sustained): approximately 30%; total ketones about 30 minutes after gavage ([4]; 10 g/kg gavage): > 5 mM; blood AcAc [4, 6]: > 3 mM; sustained elevation of total ketones ([4]; single oral administration, for over 4 hrs): > 6 mM; duration of elevation of blood ketones [4]: 4 h and > 4 h; duration of elevation of blood ketones ([4]; listed as BD-AcAc2): over 4 h; blood acetone ([4]; within about 60 minutes after single oral administration): ~0.7 mM; effect on blood glucose ([4]; listed as BD-AcAc2): does not elevate blood glucose |
